Results reported in ChEMBL document CHEMBL5104091, “Pyridazine as a privileged structure: An updated review on anticancer activity of pyridazine containing bioactive molecules” (Eur J Med Chem, 2021).
Values after ≈ are worked out from the molar mass of the structure shown. Blank lines part the entries; values can stand above or below the compound they belong to.

Tests used:
[1] = tested on: IMR-32; experiment: Cytotoxicity against human IMR-32 cells assessed as cell growth inhibition; assay type: functional, cell-based
[2] = tested on: SH-SY5Y; experiment: Anticancer activity against human SH-SY5Y cells assessed as cell growth inhibition measured upto 72 hrs by MTS assay; assay type: functional, cell-based
[3] = tested on: Hep 3B2; experiment: Anticancer activity against human Hep3B cells assessed as cell growth inhibition measured upto 72 hrs by MTS assay; assay type: functional, cell-based
[4] = molecular target: Epidermal growth factor receptor (Homo sapiens, UniProt P00533); experiment: Inhibition of EGFR (unknown origin)
Epidermal growth factor receptor, sequence (P00533 whole entry): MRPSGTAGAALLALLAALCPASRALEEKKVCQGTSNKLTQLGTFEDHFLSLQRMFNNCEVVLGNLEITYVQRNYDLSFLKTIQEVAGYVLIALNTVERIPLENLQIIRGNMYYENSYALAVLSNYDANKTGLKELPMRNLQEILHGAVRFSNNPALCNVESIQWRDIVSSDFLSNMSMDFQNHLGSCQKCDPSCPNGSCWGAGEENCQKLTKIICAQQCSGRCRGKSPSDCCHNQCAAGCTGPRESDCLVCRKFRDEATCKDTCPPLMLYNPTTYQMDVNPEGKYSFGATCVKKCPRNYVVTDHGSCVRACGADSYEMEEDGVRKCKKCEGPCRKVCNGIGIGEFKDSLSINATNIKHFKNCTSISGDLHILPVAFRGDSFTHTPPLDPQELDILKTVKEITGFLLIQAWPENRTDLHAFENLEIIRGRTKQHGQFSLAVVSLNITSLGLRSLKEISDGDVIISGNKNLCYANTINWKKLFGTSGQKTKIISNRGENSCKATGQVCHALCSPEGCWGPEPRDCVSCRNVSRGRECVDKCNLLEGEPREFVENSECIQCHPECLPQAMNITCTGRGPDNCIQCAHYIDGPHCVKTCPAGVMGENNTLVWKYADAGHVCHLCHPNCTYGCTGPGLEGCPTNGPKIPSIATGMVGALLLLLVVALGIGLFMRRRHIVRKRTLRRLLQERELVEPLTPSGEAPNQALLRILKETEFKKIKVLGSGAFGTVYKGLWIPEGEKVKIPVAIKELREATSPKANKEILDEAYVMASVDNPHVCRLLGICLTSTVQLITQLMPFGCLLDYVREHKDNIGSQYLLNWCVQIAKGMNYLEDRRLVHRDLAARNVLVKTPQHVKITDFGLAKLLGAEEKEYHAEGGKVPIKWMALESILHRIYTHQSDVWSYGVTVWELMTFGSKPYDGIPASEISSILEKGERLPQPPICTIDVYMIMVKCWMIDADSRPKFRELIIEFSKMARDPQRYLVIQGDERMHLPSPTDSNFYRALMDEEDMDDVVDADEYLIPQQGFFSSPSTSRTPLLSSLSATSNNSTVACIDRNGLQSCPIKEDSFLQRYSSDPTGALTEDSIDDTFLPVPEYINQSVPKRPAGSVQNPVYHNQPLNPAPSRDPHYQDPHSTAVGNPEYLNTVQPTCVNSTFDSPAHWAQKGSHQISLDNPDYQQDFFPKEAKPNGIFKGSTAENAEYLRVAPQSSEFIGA

[5] = tested on: MCF7; experiment: Antiproliferative activity against human MCF7 cells assessed as cell growth inhibition; assay type: functional, cell-based
[6] = tested on: A549; experiment: Antiproliferative activity against human A549 cells assessed as cell growth inhibition; assay type: functional, cell-based
[7] = tested on: MCF7; experiment: Cytotoxicity against human MCF7 cells assessed as cell growth inhibition measured after 48 hrs by MTT assay; assay type: functional, cell-based; settings: MCF7, 48 h
[8] = tested on: NALM-6; experiment: Cytotoxicity against human NALM-6 cells assessed as cell growth inhibition measured after 48 hrs by MTT assay; assay type: functional, cell-based; settings: NALM-6, 48 h
[9] = tested on: CCRF-SB; experiment: Cytotoxicity against human CCRF-SB cells assessed as cell growth inhibition measured after 48 hrs by MTT assay; assay type: functional, cell-based
[10] = tested on: PC-3; experiment: Antiproliferative activity against human PC3 cells assessed as cell growth inhibition; assay type: functional
[11] = tested on: K562; experiment: Antiproliferative activity against human K562 cells assessed as cell growth inhibition; assay type: functional
[12] = tested on: HUVEC; experiment: Antiproliferative activity against VEGF-stimulated human HUVEC cells assessed as cell growth inhibition at 10 uM incubated for 72 hrs by resazurin dye based AlamarBlue assay relative to control; assay type: functional
[13] = molecular target: T1, Poly [ADP-ribose] polymerase 1 (Homo sapiens, UniProt P09874); experiment: Inhibition of PARP1 (unknown origin) incubated for 30 mins by ELISA assay
T1 sequence (P09874 whole entry): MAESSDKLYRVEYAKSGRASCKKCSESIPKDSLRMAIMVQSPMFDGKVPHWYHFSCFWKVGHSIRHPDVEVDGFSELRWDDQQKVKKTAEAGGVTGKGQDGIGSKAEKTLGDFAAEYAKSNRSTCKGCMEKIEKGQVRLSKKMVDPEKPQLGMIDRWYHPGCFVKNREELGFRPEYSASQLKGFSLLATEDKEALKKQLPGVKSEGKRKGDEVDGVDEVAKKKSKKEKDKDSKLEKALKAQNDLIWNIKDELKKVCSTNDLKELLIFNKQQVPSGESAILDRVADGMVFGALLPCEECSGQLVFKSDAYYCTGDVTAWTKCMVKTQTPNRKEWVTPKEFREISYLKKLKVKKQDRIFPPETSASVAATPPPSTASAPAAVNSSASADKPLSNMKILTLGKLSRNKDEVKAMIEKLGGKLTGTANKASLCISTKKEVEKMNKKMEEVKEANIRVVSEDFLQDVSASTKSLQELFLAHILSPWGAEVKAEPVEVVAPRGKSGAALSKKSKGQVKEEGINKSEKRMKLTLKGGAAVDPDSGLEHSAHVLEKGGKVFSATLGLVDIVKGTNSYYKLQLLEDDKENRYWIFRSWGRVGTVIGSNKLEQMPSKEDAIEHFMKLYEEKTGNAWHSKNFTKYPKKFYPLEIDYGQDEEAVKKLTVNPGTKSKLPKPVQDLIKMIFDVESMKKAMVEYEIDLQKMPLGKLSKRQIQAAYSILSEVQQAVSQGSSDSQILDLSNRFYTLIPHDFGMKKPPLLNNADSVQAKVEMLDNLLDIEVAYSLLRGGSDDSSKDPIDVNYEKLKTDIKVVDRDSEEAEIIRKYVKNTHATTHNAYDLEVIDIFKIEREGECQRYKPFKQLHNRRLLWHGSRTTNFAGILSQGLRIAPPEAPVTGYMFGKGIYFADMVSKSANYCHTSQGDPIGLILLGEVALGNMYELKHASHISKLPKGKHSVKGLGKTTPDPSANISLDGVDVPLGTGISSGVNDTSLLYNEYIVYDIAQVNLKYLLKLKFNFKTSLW

[14] = tested on: MDA-MB-231; experiment: Cytotoxicity against human MDA-MB-231 cells assessed as cell growth inhibition measured after 48 to 72 hrs by hoechst and PI staining based analysis; assay type: functional; settings: time 48-72 hrs
[15] = Cytotoxicity against human CEM cells assessed as cell growth inhibition measured after 48 to 72 hrs by hoechst and PI staining based analysis; assay type: toxicity; settings: CCRF-CEM cells, time 48-72 hrs
[16] = molecular target: T1, Poly [ADP-ribose] polymerase 1; experiment: Inhibition of PARP1 (unknown origin) by colorimetric assay
[17] = molecular target: Protein deacetylase HDAC6 (Homo sapiens, UniProt Q9UBN7); experiment: Inhibition of HDAC6 (unknown origin) measured after 15 mins by fluorescence based assay
Protein deacetylase HDAC6, sequence (Q9UBN7 whole entry): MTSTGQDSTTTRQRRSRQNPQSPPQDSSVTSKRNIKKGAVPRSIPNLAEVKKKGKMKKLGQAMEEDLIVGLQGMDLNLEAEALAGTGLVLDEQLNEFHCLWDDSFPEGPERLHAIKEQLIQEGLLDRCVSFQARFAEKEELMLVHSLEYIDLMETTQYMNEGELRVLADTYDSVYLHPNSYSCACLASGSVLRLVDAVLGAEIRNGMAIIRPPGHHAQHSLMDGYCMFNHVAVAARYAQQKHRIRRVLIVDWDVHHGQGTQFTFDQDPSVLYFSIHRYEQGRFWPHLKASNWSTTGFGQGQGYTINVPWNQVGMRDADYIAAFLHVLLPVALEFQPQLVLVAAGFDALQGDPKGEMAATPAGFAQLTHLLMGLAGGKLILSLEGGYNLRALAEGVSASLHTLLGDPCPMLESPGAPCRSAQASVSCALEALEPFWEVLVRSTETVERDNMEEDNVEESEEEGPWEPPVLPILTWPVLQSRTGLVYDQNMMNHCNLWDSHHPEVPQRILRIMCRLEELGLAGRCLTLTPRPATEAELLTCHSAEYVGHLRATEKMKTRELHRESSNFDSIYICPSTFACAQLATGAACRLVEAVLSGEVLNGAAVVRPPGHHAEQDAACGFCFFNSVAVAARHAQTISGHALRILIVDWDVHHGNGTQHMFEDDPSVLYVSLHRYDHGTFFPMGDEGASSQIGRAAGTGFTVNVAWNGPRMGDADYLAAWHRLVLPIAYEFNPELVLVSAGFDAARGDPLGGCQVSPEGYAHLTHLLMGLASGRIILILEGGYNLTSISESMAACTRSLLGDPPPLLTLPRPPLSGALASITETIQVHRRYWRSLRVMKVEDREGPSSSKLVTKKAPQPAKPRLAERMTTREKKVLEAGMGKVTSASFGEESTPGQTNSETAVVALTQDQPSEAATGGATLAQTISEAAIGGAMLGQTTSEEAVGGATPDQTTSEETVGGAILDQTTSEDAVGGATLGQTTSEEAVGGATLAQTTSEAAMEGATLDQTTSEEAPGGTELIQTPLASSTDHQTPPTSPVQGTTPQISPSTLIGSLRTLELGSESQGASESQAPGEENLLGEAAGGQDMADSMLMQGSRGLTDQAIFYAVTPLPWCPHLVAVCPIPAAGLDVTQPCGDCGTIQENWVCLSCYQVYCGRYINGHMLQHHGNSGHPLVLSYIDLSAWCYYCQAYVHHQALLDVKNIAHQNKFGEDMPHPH

[18] = molecular target: Hepatocyte growth factor receptor (Homo sapiens, UniProt P08581); experiment: Inhibition of c-Met (unknown origin) incubated for 20 to 30 mins in presence of [33P]-ATP by scintillation counter analysis
Hepatocyte growth factor receptor, sequence (P08581 whole entry): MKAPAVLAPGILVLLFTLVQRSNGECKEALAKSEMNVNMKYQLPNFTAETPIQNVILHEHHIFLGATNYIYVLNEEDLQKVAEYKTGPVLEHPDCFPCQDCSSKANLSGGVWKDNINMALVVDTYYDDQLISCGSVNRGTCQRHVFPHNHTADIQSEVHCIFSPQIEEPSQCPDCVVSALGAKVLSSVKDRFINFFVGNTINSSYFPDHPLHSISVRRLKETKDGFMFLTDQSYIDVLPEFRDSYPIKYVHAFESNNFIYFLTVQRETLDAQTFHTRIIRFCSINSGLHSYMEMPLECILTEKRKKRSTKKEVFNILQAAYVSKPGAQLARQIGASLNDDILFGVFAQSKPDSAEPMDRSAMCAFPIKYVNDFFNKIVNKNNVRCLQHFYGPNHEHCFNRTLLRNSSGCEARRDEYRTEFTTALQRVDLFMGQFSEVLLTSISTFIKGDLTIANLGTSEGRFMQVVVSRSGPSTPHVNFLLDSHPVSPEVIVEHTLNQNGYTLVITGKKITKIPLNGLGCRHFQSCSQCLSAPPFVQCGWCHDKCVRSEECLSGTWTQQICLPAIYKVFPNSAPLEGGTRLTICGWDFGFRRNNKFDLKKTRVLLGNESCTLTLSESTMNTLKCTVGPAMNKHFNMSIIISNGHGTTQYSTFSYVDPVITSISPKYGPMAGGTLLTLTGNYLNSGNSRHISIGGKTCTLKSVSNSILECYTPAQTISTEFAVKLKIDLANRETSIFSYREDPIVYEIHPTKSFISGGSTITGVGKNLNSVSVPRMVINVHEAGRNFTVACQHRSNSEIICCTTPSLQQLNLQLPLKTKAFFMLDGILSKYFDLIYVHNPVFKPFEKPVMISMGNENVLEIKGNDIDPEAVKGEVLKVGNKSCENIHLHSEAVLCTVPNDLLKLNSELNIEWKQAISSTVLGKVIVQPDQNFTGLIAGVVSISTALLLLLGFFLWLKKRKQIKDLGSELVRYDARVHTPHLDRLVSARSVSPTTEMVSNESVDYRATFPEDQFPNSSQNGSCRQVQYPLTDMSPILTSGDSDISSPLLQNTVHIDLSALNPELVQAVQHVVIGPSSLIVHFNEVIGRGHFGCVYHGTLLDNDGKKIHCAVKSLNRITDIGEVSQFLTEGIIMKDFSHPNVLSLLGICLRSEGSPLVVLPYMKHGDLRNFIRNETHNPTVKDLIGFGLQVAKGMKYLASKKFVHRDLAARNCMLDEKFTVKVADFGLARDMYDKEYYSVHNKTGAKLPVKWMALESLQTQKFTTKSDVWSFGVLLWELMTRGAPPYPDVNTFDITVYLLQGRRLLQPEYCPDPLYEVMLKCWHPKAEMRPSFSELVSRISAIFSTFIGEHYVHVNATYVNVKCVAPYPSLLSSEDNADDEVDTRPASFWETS

[19] = tested on: MDA-MB-231; experiment: Potency index, ratio of 5-Fu IC50 to compound IC50 for antiproliferative activity against human MDA-MB-231 cells assessed as cell growth inhibition measured after 48 hrs by WST-1 assay; assay type: functional
[20] = tested on: MDA-MB-231; experiment: Antiproliferative activity against human MDA-MB-231 cells assessed as cell growth inhibition measured after 48 hrs by WST-1 assay; assay type: functional, cell-based; settings: MDA-MB-231, 48 h
[21] = tested on: MDA-MB-436; experiment: Antiproliferative activity against human MDA-MB-436 cells assessed as cell growth inhibition measured after 72 hrs by MTT assay; assay type: functional, cell-based; settings: MDA-MB-436, 72 h
[22] = tested on: HCT-116; experiment: Cytotoxicity against human HCT-116 cells assessed as cell growth inhibition; assay type: functional, cell-based
[23] = tested on: HepG2; experiment: Antiproliferative activity against human HepG2 cells assessed as inhibition of cell growth measured after 48 hrs by MTT assay; assay type: functional, cell-based; settings: HepG2, 48 h
[24] = tested on: MCF7; experiment: Antiproliferative activity against human MCF7 cells assessed as cell growth inhibition measured after 48 hrs by MTT assay; assay type: functional, cell-based; settings: MCF7, 48 h
[25] = tested on: OVCAR-3; experiment: Cytotoxicity against human OVCAR-3 cells assessed as cell growth inhibition measured after 48 hrs by SRB assay; assay type: functional
[26] = tested on: SF-295; experiment: Cytotoxicity against human SF-295 cells assessed as cell growth inhibition measured after 48 hrs by SRB assay; assay type: functional
[27] = tested on: MDA-MB-468; experiment: Cytotoxicity against human MDA-MB-468 cells assessed as cell growth inhibition measured after 48 hrs by SRB assay; assay type: functional
[28] = tested on: MCF7; experiment: Cytotoxicity against human MCF7 cells assessed as cell growth inhibition measured after 48 hrs by SRB assay; assay type: functional
[29] = tested on: MDA-MB-435; experiment: Cytotoxicity against human MDA-MB-435 cells assessed as cell growth inhibition measured after 48 hrs by SRB assay; assay type: functional
[30] = tested on: SK-MEL-5; experiment: Cytotoxicity against human SK-MEL-5 cells assessed as cell growth inhibition measured after 48 hrs by SRB assay; assay type: functional
[31] = tested on: KM12; experiment: Cytotoxicity against human KM12 cells assessed as cell growth inhibition measured after 48 hrs by SRB assay; assay type: functional
[32] = tested on: SR; experiment: Cytotoxicity against human SR cells assessed as cell growth inhibition measured after 48 hrs by SRB assay; assay type: functional
[33] = tested on: A498; experiment: Cytotoxicity against human A498 cells assessed as cell growth inhibition measured after 48 hrs by SRB assay; assay type: functional
[34] = tested on: PC-3; experiment: Cytotoxicity against human PC-3 cells assessed as cell growth inhibition measured after 48 hrs by SRB assay; assay type: functional
[35] = tested on: SW-620; experiment: Cytotoxicity against human SW-620 cells assessed as cell growth inhibition measured after 48 hrs by SRB assay; assay type: functional
[36] = tested on: UACC-62; experiment: Cytotoxicity against human UACC-62 cells assessed as cell growth inhibition measured after 48 hrs by SRB assay; assay type: functional
[37] = tested on: HCT-15; experiment: Cytotoxicity against human HCT-15 cells assessed as cell growth inhibition measured after 48 hrs by SRB assay; assay type: functional
[38] = tested on: TMD8; experiment: Cytotoxicity against human TMD8 cells assessed as cell growth inhibition measured after 72 hrs by WST-1 assay; assay type: functional, cell-based; settings: TMD8, 72 h
[39] = molecular target: Tyrosine-protein kinase BTK (Homo sapiens, UniProt Q06187); experiment: Inhibition of BTK (unknown origin) incubated for 30 mins in presence of ATP by fluorescence based analysis
[40] = tested on: MDA-MB-231; experiment: Antiproliferative activity against human MDA-MB-231 cells assessed as cell growth inhibition; assay type: functional, cell-based
[41] = tested on: HaCaT; experiment: Antiproliferative activity against human HaCaT cells assessed as cell growth inhibition; assay type: functional, cell-based
[42] = tested on: COLO 205; experiment: Cytotoxicity against human COLO 205 cells assessed as cell growth inhibition; assay type: functional, cell-based
[43] = tested on: A-375; experiment: Cytotoxicity against human A-375 cells assessed as cell growth inhibition; assay type: functional, cell-based

IC50 [2]: 23.2 µM
SMILES: Cc1cccc(/C=N/NC(=O)Cn2nc(N3CCN(c4ccc(Cl)cc4)CC3)ccc2=O)c1
IC50 [3]: 24.3 µM

IC50 [4]: 0.00045 µM
SMILES: CN(C)c1ccc(/C=N/NC(=O)Cn2nc(Cc3ccc(Cl)cc3)c3ccccc3c2=O)cc1

GI50 [10]: 5.3 µM
GI50 [11]: 9.4 µM
SMILES: CC1(C)CC(=O)C2=C(C1)n1c(=O)c3ccccc3c(=O)n1C2

IC50 [13]: 0.0455 µM
SMILES: O=C(Nc1nc(-c2ccccc2)cs1)c1ccc(Cc2n[nH]c(=O)c3cccnc23)cc1

IC50 [16]: 0.007 µM
IC50 [17]: 0.057 µM
SMILES: O=C(/C=C/c1ccc(CCCCCCc2n[nH]c(=O)c3cc(F)ccc23)cc1)NO

IC50 [18]: 107 µM
SMILES: O=C(O)c1ccccc1Nc1ccc2nnc(-c3ccncc3)n2n1

IC50 [20]: 12 µM
SMILES: O=C1Nc2ccc(Cl)cc2/C1=N/Nc1nnc(-c2ccc(Cl)cc2)c2ccccc12
Ratio IC50 [19]: 2.4

IC50 [21]: 11.6 µM
SMILES: O=C(/C=C/c1cccc([N+](=O)[O-])c1)N1CCN(C(=O)c2cc(Cc3n[nH]c(=O)c4ccccc34)ccc2F)CC1

IC50 [40]: 2.56 µM
IC50 [5]: 3.43 µM
SMILES: COc1ccc(-c2nc(N3N=C(c4ccc(F)cc4)CCC3=O)n(C)c(=O)c2C#N)cc1
IC50 [41]: > 50 µM

Further lines, the compound ahead of its results:

SMILES: Cc1n[nH]c(=O)c2c1c1cc(F)ccc1n2Cc1cn(C2CCCCC2)nn1
IC50 [1]: 0.04 µM

SMILES: CC(C)[Si](C#Cc1cc(-n2cc(Cn3nc(-c4ccccc4)cc(-c4ccccc4)c3=O)nn2)cc(C#C[Si](C(C)C)(C(C)C)C(C)C)n1)(C(C)C)C(C)C
IC50 [5]: 3.25 µg/mL
IC50 [6]: 5 µg/mL (≈ 6.52 µM)

SMILES: Clc1ccc2nnc(-c3c[nH]c4ccccc34)n2n1
IC50 [7]: 3.55 µM
IC50 [8]: 1.14 µM
IC50 [9]: 1.64 µM

SMILES: O=C(Nc1ccc(Oc2nnc(Cl)c3ccccc23)cc1)Nc1ccc(Cl)c(C(F)(F)F)c1
inhibition at 10 µM [12]: 71.6%

SMILES: O=c1c(Cl)c(Cl)cnn1-c1ccc(Cl)c(C(F)(F)F)c1
CC50 [14]: 2.63 µM
CC50 [15]: 0.33 µM

SMILES: N=C(N)NS(=O)(=O)c1ccc(Nc2ccc3nc4ccccc4c(=O)n3n2)cc1
IC50 [22]: 11.9 µM

SMILES: O=c1[nH]nc(-c2nnc(S)o2)c2ccccc12
IC50 [23]: 4.5 µM
IC50 [24]: 4.9 µM

SMILES: CCOC(=O)c1cc(C(=O)c2cc(OC)c(OC)c(OC)c2)n2nc(C)ccc12
GI50 [25]: < 0.1 µM
GI50 [26]: < 0.1 µM
GI50 [27]: < 0.1 µM
GI50 [28]: 0.0481 µM
GI50 [29]: 0.0256 µM
GI50 [30]: < 0.1 µM
GI50 [31]: < 0.1 µM
GI50 [32]: 0.0481 µM
GI50 [33]: < 0.1 µM
GI50 [34]: < 0.1 µM
GI50 [35]: < 0.1 µM
GI50 [36]: < 0.1 µM
GI50 [37]: < 0.1 µM

SMILES: CC(C)Nc1ccc2nnc(-c3cc(-c4cnn(C5CCN(CCO)CC5)c4)cnc3N)n2n1
IC50 [38]: 0.8 µM
IC50 [39]: 0.033 µM

SMILES: O=C(NC(Cc1c[nH]c2ccccc12)C1C(=O)N=C2C=CC=NN21)c1ccccc1 (centres undefined)
IC50 [42]: 0.021 µM
IC50 [43]: 0.014 µM
